Results taken from patent US11738008B2, “N-methyl-D-aspartic acid receptor modulators” (Emory University, priority 2018, dated 2023).
In brackets after ≈: the same amount, converted by molar mass. Like-named read-outs stand apart in the source and are kept apart here.

How the values were obtained:
[1] = target: rat GluN1/GluN2C (Rattus norvegicus, UniProt P35439+Q00961); assay: Two-electrode voltage clamp recordings in Xenopus laevis oocytes, potentiation of GluN1/GluN2C; type: cell-based
Procedure: (§1) Xenopus laevis oocytes were purchased unfertilized from Ecocyte (Austin, Tex.). The oocytes were injected with mRNA to express recombinant rat GluN1/GluN2A, GluN1/GluN2B, GluN1/GluN2C, and GluN1/GluN2D and two-electrode voltage clamp (TEVC) recordings were performed. Drs. S. Heinemann (Salk Institute), S. Nakanishi (Kyoto University), and P. Seeburg (University of Heidelberg) provided the cDNAs for rat GluN1-1a (GenBank accession numbers U11418 and U08261, referred to as GluN1 henceforth), GluN2A (D13211), GluN2B (U11419), GluN2C (M91563), and GluN2D (D13213). GluN2C and GluN2D were altered according to literature precedent. […] To prevent the current increase typically seen during experiments with oocytes expressing GluN1/GluN2A receptors, the oocytes were either injected with 20 nL of 100 mM K-BAPTA (potassium 1,2-bis(o-aminophenoxy)ethane-N,N,N,N-tetraacetic acid) or pretreated with 50 μM BAPTA-AM (1,2-bis(o-aminophenoxy)ethane-N,N,N,N-tetraacetic acid tetraacetoxymethyl ester) for 10 minutes.

[2] = target: rat GluN1/GluN2C (Rattus norvegicus, UniProt Q00961); assay: as above; type: cell-based; conditions: for GluN2C Max %: maximal response, current without potentiator = 100%; for GluN2C potentiation (NE class): 30 μM
Procedure: as §1

[3] = target: rat GluN1/GluN2D (Rattus norvegicus, UniProt P35439+Q62645); assay: Two-electrode voltage clamp recordings in Xenopus laevis oocytes, potentiation of GluN1/GluN2D; type: cell-based
Procedure: as §1

[4] = target: rat GluN1/GluN2D (Rattus norvegicus, UniProt Q62645); assay: as above; type: cell-based; conditions: for GluN2D Max %: maximal response, current without potentiator = 100%; for GluN2D potentiation (NE class): 30 μM
Procedure: as §1

[5] = nephelometer, oocyte recording solution
[6] = test system: GluN2C/D; conditions: Mullasseril et al. 2010; read-out: potency at GluN2C/D; cited from earlier work
[7] = test system: GluN2A/B, AMPAR, or kainate receptors; conditions: previously described; cited from earlier work
[8] = test system: schizophrenia-like symptoms; conditions: mice; Suryavanshi et al. 2014; cited from earlier work
[9] = test system: fear and extinction learning; conditions: mice; Ogden et al. 2014; cited from earlier work

Chain of rat GluN1/GluN2D (Rattus norvegicus, UniProt P35439+Q62645) (Q62645 28-1323, other chains not shown): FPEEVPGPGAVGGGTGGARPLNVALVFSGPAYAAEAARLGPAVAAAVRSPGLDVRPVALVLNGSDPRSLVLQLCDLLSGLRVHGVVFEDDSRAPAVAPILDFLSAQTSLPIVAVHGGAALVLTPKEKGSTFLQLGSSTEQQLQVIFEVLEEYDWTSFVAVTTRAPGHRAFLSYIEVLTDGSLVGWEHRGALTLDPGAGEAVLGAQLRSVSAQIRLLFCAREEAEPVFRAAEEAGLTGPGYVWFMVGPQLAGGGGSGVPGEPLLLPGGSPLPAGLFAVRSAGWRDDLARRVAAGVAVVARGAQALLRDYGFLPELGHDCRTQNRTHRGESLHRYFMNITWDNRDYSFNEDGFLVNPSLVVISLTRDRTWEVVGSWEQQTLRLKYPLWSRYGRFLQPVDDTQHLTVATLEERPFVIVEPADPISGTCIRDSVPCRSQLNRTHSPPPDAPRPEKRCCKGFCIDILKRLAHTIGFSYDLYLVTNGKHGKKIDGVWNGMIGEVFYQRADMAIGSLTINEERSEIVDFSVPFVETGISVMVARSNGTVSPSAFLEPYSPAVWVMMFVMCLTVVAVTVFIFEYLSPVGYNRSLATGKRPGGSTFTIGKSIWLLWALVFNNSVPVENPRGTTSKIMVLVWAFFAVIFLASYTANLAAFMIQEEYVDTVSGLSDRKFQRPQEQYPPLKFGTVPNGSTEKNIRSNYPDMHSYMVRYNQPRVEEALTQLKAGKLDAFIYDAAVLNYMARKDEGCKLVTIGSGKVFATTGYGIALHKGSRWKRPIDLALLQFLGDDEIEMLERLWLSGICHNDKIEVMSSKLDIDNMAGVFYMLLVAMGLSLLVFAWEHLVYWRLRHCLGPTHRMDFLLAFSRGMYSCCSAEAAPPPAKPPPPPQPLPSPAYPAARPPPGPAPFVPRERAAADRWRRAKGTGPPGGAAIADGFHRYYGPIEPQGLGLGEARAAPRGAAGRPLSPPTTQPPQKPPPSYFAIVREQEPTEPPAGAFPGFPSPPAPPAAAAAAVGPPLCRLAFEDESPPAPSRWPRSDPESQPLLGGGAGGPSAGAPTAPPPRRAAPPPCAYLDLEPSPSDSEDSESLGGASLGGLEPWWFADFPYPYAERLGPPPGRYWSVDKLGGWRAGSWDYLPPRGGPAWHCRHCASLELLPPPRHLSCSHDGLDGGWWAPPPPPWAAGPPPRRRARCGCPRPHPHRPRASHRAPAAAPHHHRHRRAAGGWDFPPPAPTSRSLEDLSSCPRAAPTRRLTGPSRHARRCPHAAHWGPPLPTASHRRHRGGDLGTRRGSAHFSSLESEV
Chain of rat GluN1/GluN2D (Rattus norvegicus, UniProt Q62645) (Q62645 28-1323, other chains not shown): as above
Chain of rat GluN1/GluN2C (Rattus norvegicus, UniProt P35439+Q00961) (Q00961 20-1237, other chains not shown): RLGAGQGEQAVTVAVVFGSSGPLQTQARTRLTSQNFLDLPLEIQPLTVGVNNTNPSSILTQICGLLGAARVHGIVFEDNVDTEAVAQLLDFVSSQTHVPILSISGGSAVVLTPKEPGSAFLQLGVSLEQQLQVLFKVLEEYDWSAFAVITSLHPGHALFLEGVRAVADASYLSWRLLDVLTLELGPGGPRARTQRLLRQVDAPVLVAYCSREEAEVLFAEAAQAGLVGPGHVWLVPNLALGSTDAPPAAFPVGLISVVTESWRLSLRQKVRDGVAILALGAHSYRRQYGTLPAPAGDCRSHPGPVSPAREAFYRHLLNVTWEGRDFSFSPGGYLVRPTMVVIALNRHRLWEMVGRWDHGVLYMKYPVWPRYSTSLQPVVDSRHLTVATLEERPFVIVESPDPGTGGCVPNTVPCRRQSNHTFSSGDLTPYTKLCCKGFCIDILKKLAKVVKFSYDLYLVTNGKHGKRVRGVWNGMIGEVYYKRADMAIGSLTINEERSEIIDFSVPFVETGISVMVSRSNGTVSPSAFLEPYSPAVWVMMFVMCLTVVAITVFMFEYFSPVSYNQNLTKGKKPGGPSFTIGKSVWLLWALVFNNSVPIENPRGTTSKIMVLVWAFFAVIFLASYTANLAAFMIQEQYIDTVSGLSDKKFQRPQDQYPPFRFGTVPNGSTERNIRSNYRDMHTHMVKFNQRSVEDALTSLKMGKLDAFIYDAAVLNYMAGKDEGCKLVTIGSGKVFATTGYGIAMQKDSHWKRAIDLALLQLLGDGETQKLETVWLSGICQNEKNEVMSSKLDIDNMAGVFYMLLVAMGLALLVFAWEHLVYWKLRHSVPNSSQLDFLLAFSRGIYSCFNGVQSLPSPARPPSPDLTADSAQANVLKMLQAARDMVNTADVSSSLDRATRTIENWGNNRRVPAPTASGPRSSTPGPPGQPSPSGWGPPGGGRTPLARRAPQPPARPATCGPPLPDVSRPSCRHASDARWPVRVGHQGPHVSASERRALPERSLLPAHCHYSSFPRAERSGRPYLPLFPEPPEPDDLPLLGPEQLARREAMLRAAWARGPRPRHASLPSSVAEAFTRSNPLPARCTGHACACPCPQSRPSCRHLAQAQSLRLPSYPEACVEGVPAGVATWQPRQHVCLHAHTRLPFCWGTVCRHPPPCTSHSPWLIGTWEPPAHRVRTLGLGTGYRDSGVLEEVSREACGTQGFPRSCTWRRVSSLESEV
Chain of rat GluN1/GluN2C (Rattus norvegicus, UniProt Q00961) (Q00961 20-1237, other chains not shown): as above

Compound | GluN2C (max) (%) [2] | GluN2D (max) (%) [4] | EC50 ([1]; read-out: GluN2C EC50) [µM] | GluN2C Max % [2] [%] | EC50 ([3]; read-out: GluN2D EC50) [µM] | GluN2D Max % [4] [%] | further results
COc1ccc(OCC2c3cccn3CCN2C(=O)c2cccc(C(F)(F)F)c2)cc1 (racemic) [1180-450, (1-((4-methoxyphenoxy)methyl)-3,4-dihydropyrrolo[1,2-a]pyrazin-2(1H)-yl)(3-(trifluoromethyl)phenyl)methanone] | (381) % | (288) % |  |  |  |  | EC50 ([1]; read-out: GluN2C pEC50 [95% CI] (converted)): 1.58 µM; EC50 ([3]; read-out: GluN2D pEC50 [95% CI] (converted)): 2 µM; Solubility [5]: 58 µM (≈ 25 µg/mL)
COc1ccc(OCC2c3sccc3CCN2C(=O)c2cccc(Cl)c2)cc1 (centres unmarked) [1180-400, (3-Chlorophenyl)(7-((4-methoxyphenoxy)methyl)-4,7-dihydrothieno[2,3-c]pyridin-6(5H)-yl)methanone] |  |  | 3.8 | 288 | 3.5 | 391 | 
COc1ccc(OCC2c3ccsc3CCN2C(=O)c2cccc(Cl)c2)cc1 (centres unmarked) [1180-401, (3-Chlorophenyl)(4-((4-methoxyphenoxy)methyl)-6,7-dihydrothieno[3,2-c]pyridin-5(4H)-yl)methanone] |  |  | 3.6 | 320 | 4.7 | 369 | 
COc1ccc(OCC2c3sc(C)nc3CCN2C(=O)c2cccc(Cl)c2)cc1 (centres unmarked) [1180-402, (3-Chlorophenyl)(4-((4-methoxyphenoxy)methyl)-2-methyl-6,7-dihydrothiazolo[5,4-c]pyridin-5(4H)-yl)methanone] |  |  |  |  |  |  | GluN2C potentiation (NE class) [2]: NE (NE indicates less than 20% potentiation at 30 μM); GluN2D potentiation (NE class) [4]: NE (NE indicates less than 20% potentiation at 30 μM)
COc1ccc(OCC2c3occc3CCN2C(=O)c2cccc(Cl)c2)cc1 (centres unmarked) [1180-403, (3-Chlorophenyl)(7-((4-methoxyphenoxy)methyl)-4,7-dihydrofuro[2,3-c]pyridin-6(5H)-yl)methanone] |  |  | 7.4 | 353 | 9.6 | 527 | 
COc1ccc(OCC2c3sccc3CCN2C(=O)c2ccc(Cl)s2)cc1 (centres unmarked) [1180-404, (5-Chlorothiophen-2-yl)(7-((4-methoxyphenoxy)methyl)-4,7-dihydrothieno[2,3-c]pyridin-6(5H)-yl)methanone] |  |  | 5.1 | 269 | 7.4 | 352 | 
COc1ccc(OCC2c3sccc3CCN2C(=O)/C=C/C(F)(F)F)cc1 (centres unmarked) [1180-405, (E)-4,4,4-trifluoro-1-(7-((4-methoxyphenoxy)methyl)-4,7-dihydrothieno[2,3-c]pyridin-6(5H)-yl)but-2-en-1-one] |  |  | 13 | 282 | 13 | 317 | 
COc1ccc(OCC2c3cnn(C)c3CCN2C(=O)c2cccc(Cl)c2)cc1 (centres unmarked) [1180-407, (3-Chlorophenyl)(4-((4-methoxyphenoxy)methyl)-1-methyl-1,4,6,7-tetrahydro-5H-pyrazolo[4,3-c]pyridin-5-yl)methanone] |  |  |  |  |  |  | GluN2C response at 100 μM ([2]; @ 100 μM): 207% @ 100 μM; GluN2D response at 100 μM ([4]; @ 100 μM): 216% @ 100 μM
COc1ccc(OCC2c3cnsc3CCN2C(=O)c2cccc(Cl)c2)cc1 (centres unmarked) [1180-411, (3-Chlorophenyl)(4-((4-methoxyphenoxy)methyl)-6,7-dihydroisothiazolo[4,5-c]pyridin-5(4H)-yl)methanone] |  |  | 11 | 194 | 15 | 238 | 
COc1ccc(OCC2c3cnn(C)c3CCN2C(=S)c2cccc(Cl)c2)cc1 (centres unmarked) [1180-413, (3-Chlorophenyl)(4-((4-methoxyphenoxy)methyl)-1-methyl-1,4,6,7-tetrahydro-5H-pyrazolo[4,3-c]pyridin-5-yl)methanethione] |  |  |  |  |  |  | GluN2C potentiation (NE class) [2]: NE (NE indicates less than 20% potentiation at 30 μM); GluN2D potentiation (NE class) [4]: NE (NE indicates less than 20% potentiation at 30 μM)
COc1ccc(OCC2c3ccsc3CCN2C(=S)c2cccc(Cl)c2)cc1 (centres unmarked) [1180-414, (3-Chlorophenyl)(4-((4-methoxyphenoxy)methyl)-6,7-dihydrothieno[3,2-c]pyridin-5(4H)-yl)methanethione] |  |  |  |  |  |  | GluN2C potentiation (NE class) [2]: NE (NE indicates less than 20% potentiation at 30 μM); GluN2D potentiation (NE class) [4]: NE (NE indicates less than 20% potentiation at 30 μM)
COc1ccc(OCC2c3cccn3CC(=O)N2Cc2cccc(F)c2)cc1 (centres unmarked) [1180-453, 2-(3-fluorobenzyl)-1-((4-methoxyphenoxy)methyl)-1,2-dihydropyrrolo[1,2-a]pyrazin-3(4H)-one] | (348) % | (334) % |  |  |  |  | Solubility [5]: 74 µM (≈ 28.2 µg/mL)
COc1ccc(OCC2c3cc(OC)c(OC)cc3CCN2C(=O)c2cccc(Cl)c2)cc1 (centres unmarked) [CIQ] | 233% | 215% |  |  |  |  | EC50 [6]: 5 to 10 µM; activity at GluN2A/B, AMPAR, or kainate receptors [7]: no activity; effect on schizophrenia-like symptoms in animal models [8]: attenuate schizophrenia-like symptoms; effect on fear and extinction learning in animal models [9]: facilitate the retention of fear and extinction learning
COc1ccc(OC[C@H]2c3cccn3CC(=O)N2Cc2cccc(C(F)(F)F)c2)cc1 [R-(+)-1180-447] | 276% | 332% |  |  |  |  | 
COc1ccc(OC[C@H]2c3cccn3CCN2C(=O)c2cccc(C(F)(F)F)c2)cc1 [R-(+)-1180-450] | 464% | 542% |  |  |  |  | 
